Literature values as cited in PubChem BioAssay AID1259409 (Chemical Carcinogenesis Research Information System (CCRIS), 2018).

Tested on: rodent chemically induced tumor inhibition, incidence and multiplicity
Test: CCRIS tumor inhibitor studies
Conditions: Route [Inhibitor]: ORAL, Species: HAMSTER, Promoter: NONE USED

CC1=C(/C=C/C(C)=C/C=C/C(C)=C\C(=O)O)C(C)(C)CCC1
tumour outcome (control, treated, inhibition, significance) (Carcinogen: N-NITROBIS(2-OXOPROPYL)AMINE, 60559-38-4, Dose [Inhibitor]: 0.4 OR 0.8 MMOL/KG DIET DAILY STARTING 1 WK AFTER CARCINOGEN TREATMENT AND CONTINUING THROUGH THE END OF THE STUDY (STUD, Strain/Sex: SYRIAN/FEMALE, Target Tissue: Type of Lesion: PANCREAS: DUCTULAR ADENOMA, Dose [Carcinogen]: 40 MG/KG BW ONCE): 12/20 (60%), 7/14 (50%), 17%, not significant | tumour outcome (control, treated, inhibition, significance) (Carcinogen: N-NITROBIS(2-OXOPROPYL)AMINE, 60559-38-4, Dose [Inhibitor]: 0.4 OR 0.8 MMOL/KG DIET DAILY STARTING 1 WK AFTER CARCINOGEN TREATMENT AND CONTINUING THROUGH THE END OF THE STUDY (STUD, Strain/Sex: SYRIAN/FEMALE, Target Tissue: Type of Lesion: PANCREAS: DUCTULAR CARCINOMA, Dose [Carcinogen]: 10 MG/KG BW ONCE): 6/23 (27%), 3/23 (13%), 52%, not significant | tumour outcome (control, treated, inhibition, significance) (Carcinogen: N-NITROBIS(2-OXOPROPYL)AMINE, 60559-38-4, Dose [Inhibitor]: 0.4 OR 0.8 MMOL/KG DIET DAILY STARTING 1 WK AFTER CARCINOGEN TREATMENT AND CONTINUING THROUGH THE END OF THE STUDY (STUD, Strain/Sex: SYRIAN/FEMALE, Target Tissue: Type of Lesion: PANCREAS: DUCTULAR CARCINOMA, Dose [Carcinogen]: 40 MG/KG BW ONCE): 6/20 (30%), 9/14 (64%), -113%, not significant | tumour outcome (control, treated, inhibition, significance) (Carcinogen: N-NITROBIS(2-OXOPROPYL)AMINE, 60559-38-4, Dose [Inhibitor]: 0.4 OR 0.8 MMOL/KG DIET DAILY STARTING 1 WK AFTER CARCINOGEN TREATMENT AND CONTINUING THROUGH THE END OF THE STUDY (STUD, Strain/Sex: SYRIAN/MALE, Target Tissue: Type of Lesion: PANCREAS: DUCTULAR CARCINOMA, Dose [Carcinogen]: 40 MG/KG BW ONCE): 5/24 (21%), 9/24 (38%), -81%, not significant | tumour outcome (control, treated, inhibition, significance) (Carcinogen: N-NITROBIS(2-OXOPROPYL)AMINE, 60559-38-4, Dose [Inhibitor]: 0.4 OR 0.8 MMOL/KG/D IN DIET STARTING 1 WK AFTER CARCINOGEN TREATMENT AND CONTINUING THROUGH THE END OF THE STUDY (STUDY, Strain/Sex: SYRIAN/MALE, Target Tissue: Type of Lesion: LIVER: BENIGN TUMOR, Dose [Carcinogen]: 40 MG/KG BW ONCE): 21%, 48%, -129%, not significant | tumour outcome (control, treated, inhibition, significance) (Carcinogen: N-NITROBIS(2-OXOPROPYL)AMINE, 60559-38-4, Dose [Inhibitor]: 0.4 OR 0.8 MMOL/KG/D IN DIET STARTING 1 WK AFTER CARCINOGEN TREATMENT AND CONTINUING THROUGH THE END OF THE STUDY (STUDY, Strain/Sex: SYRIAN/MALE, Target Tissue: Type of Lesion: PANCREAS: DUCTULAR ADENOMA, Dose [Carcinogen]: 10 MG/KG BW ONCE): 3/22 (14%), 20/36 (56%), -300%, p<0.05 | tumour outcome (control, treated, inhibition, significance) (Carcinogen: N-NITROBIS(2-OXOPROPYL)AMINE, 60559-38-4, Dose [Inhibitor]: 0.4 OR 0.8 MMOL/KG/D IN DIET STARTING 1 WK AFTER CARCINOGEN TREATMENT AND CONTINUING THROUGH THE END OF THE STUDY (STUDY, Strain/Sex: SYRIAN/MALE, Target Tissue: Type of Lesion: PANCREAS: DUCTULAR CARCINOMA, Dose [Carcinogen]: 10 MG/KG BW ONCE): 4/22 (18%), 8/36 (22%), -22%, not significant | tumour outcome (control, treated, inhibition, significance) (Carcinogen: N-NITROBIS(2-OXOPROPYL)AMINE, 60559-38-4, Dose [Inhibitor]: 0.5 OR 1.0 MMOL/KG/D IN DIET STARTING 1 WK AFTER CARCINOGEN TREATMENT AND CONTINUING THROUGH THE END OF THE STUDY (STUDY, Strain/Sex: SYRIAN/FEMALE, Target Tissue: Type of Lesion: PANCREAS: DUCTULAR ADENOMA, Dose [Carcinogen]: 10 MG/KG BW ONCE): 5/23 (22%), 9/23 (39%), -77%, not significant | tumour outcome (control, treated, inhibition, significance) (Carcinogen: N-NITROBIS(2-OXOPROPYL)AMINE, 60559-38-4, Dose [Inhibitor]: 0.5 OR 1.0 MMOL/KG/D IN DIET STARTING 1 WK AFTER CARCINOGEN TREATMENT AND CONTINUING THROUGH THE END OF THE STUDY (STUDY, Strain/Sex: SYRIAN/FEMALE, Target Tissue: Type of Lesion: PANCREAS: DUCTULAR CARCINOMA, Dose [Carcinogen]: 10 MG/KG BW ONCE): 6/23 (27%), 3/23 (13%), 52%, not significant | tumour outcome (control, treated, inhibition, significance) (Carcinogen: N-NITROSOBIS(2-OXYPROPYL)AMINE, 60599-38-4, Dose [Inhibitor]: 0.05, 0.1 OR 0.2 MILLIMOLAR/KG DIET FOR 32 WK STARTING 1 WK AFTER THE CARCINOGEN DOSE (STUDY DURATION: 33 WK), Strain/Sex: SYRIAN/FEMALE, Target Tissue: Type of Lesion: LUNG: ADENOMA, Dose [Carcinogen]: 40 MG/KG ONCE): 3/10 (30%), 6/26 (23%), 23%, not significant | tumour outcome (control, treated, inhibition, significance) (Carcinogen: N-NITROSOBIS(2-OXYPROPYL)AMINE, 60599-38-4, Dose [Inhibitor]: 0.05, 0.1 OR 0.2 MILLIMOLAR/KG DIET FOR 32 WK STARTING 1 WK AFTER THE CARCINOGEN DOSE (STUDY DURATION: 33 WK), Strain/Sex: SYRIAN/MALE, Target Tissue: Type of Lesion: COMMON DUCT: ADENOMA, Dose [Carcinogen]: 40 MG/KG ONCE): 4/12 (33%), 17/29 (59%), -78%, not significant | tumour outcome (control, treated, inhibition, significance) (Carcinogen: N-NITROSOBIS(2-OXYPROPYL)AMINE, 60599-38-4, Dose [Inhibitor]: 0.05, 0.1 OR 0.2 MILLIMOLAR/KG DIET FOR 32 WK STARTING 1 WK AFTER THE CARCINOGEN DOSE (STUDY DURATION: 33 WK), Strain/Sex: SYRIAN/MALE, Target Tissue: Type of Lesion: GALL BLADDER: ADENOMA, Dose [Carcinogen]: 40 MG/KG ONCE): 3/12 (25%), 12/29 (41%), -64%, not significant | tumour outcome (control, treated, inhibition, significance) (Carcinogen: N-NITROSOBIS(2-OXYPROPYL)AMINE, 60599-38-4, Dose [Inhibitor]: 0.05, 0.1 OR 0.2 MILLIMOLAR/KG DIET FOR 32 WK STARTING 1 WK AFTER THE CARCINOGEN DOSE (STUDY DURATION: 33 WK), Strain/Sex: SYRIAN/MALE, Target Tissue: Type of Lesion: LIVER: ADENOMA, Dose [Carcinogen]: 40 MG/KG ONCE): 50%, 41%, 18%, not significant | tumour outcome (control, treated, inhibition, significance) (Carcinogen: N-NITROSOBIS(2-OXYPROPYL)AMINE, 60599-38-4, Dose [Inhibitor]: 0.05, 0.1 OR 0.2 MILLIMOLAR/KG DIET FOR 32 WK STARTING 1 WK AFTER THE CARCINOGEN DOSE (STUDY DURATION: 33 WK), Strain/Sex: SYRIAN/MALE, Target Tissue: Type of Lesion: LUNG: ADENOMA, Dose [Carcinogen]: 40 MG/KG ONCE): 1/12 (8%), 2/29 (3%), 63%, not significant | tumour outcome (control, treated, inhibition, significance) (Carcinogen: N-NITROSOBIS(2-OXYPROPYL)AMINE, 60599-38-4, Dose [Inhibitor]: 0.05, 0.1 OR 0.2 MILLIMOLAR/KG DIET FOR 32 WK STARTING 1 WK AFTER THE CARCINOGENDOSE (STUDY DURATION: 33 WK), Strain/Sex: SYRIAN/FEMALE, Target Tissue: Type of Lesion: COMMON DUCT: ADENOMA, Dose [Carcinogen]: 40 MG/KG ONCE): 4/10 (40%), 11/26 (42%), -5%, not significant | tumour outcome (control, treated, inhibition, significance) (Carcinogen: N-NITROSOBIS(2-OXYPROPYL)AMINE, 60599-38-4, Dose [Inhibitor]: 0.05, 0.1 OR 0.2 MILLIMOLAR/KG DIET FOR 32 WK STARTING 1 WK AFTER THE CARCINOGENDOSE (STUDY DURATION: 33 WK), Strain/Sex: SYRIAN/FEMALE, Target Tissue: Type of Lesion: GALL BLADDER: ADENOMA, Dose [Carcinogen]: 40 MG/KG ONCE): 6/10 (60%), 2/26 (18%), 70%, not significant | tumour outcome (control, treated, inhibition, significance) (Carcinogen: N-NITROSOBIS(2-OXYPROPYL)AMINE, 60599-38-4, Dose [Inhibitor]: 0.05, 0.1 OR 0.2 MILLIMOLAR/KG DIET FOR 32 WK STARTING 1 WK AFTER THE CARCINOGENDOSE (STUDY DURATION: 33 WK), Strain/Sex: SYRIAN/FEMALE, Target Tissue: Type of Lesion: LIVER : ADENOMA, Dose [Carcinogen]: 40 MG/KG ONCE): 6/10 (60%), 10/26 (39%), 35%, not significant | tumour outcome (control, treated, inhibition, significance) (Carcinogen: N-NITROSOBIS(2-OXYPROPYL)AMINE, 60599-38-4, Dose [Inhibitor]: 0.05, 0.1 OR 0.2 MILLIMOLAR/KG DIET FOR 32 WK STARTING 1 WK AFTER THE CARCINOGENDOSE (STUDY DURATION: 33 WK), Strain/Sex: SYRIAN/FEMALE, Target Tissue: Type of Lesion: PANCREAS: ADENOMA, Dose [Carcinogen]: 40 MG/KG ONCE): 10/10 (100%), 26/26 (100%), 0%, not significant | tumour outcome (control, treated, inhibition, significance) (Carcinogen: N-NITROSOBIS(2-OXYPROPYL)AMINE, 60599-38-4, Dose [Inhibitor]: 0.05, 0.1 OR 0.2 MILLIMOLAR/KG DIET FOR 32 WK STARTING 1 WK AFTER THE CARCINOGENDOSE (STUDY DURATION: 33 WK), Strain/Sex: SYRIAN/FEMALE, Target Tissue: Type of Lesion: PANCREAS: CARCINOMA, Dose [Carcinogen]: 40 MG/KG ONCE): 4/10 (40%), 14/26 (54%), -35%, not significant | tumour outcome (control, treated, inhibition, significance) (Carcinogen: N-NITROSOBIS(2-OXYPROPYL)AMINE, 60599-38-4, Dose [Inhibitor]: 0.05, 0.1 OR 0.2 MILLIMOLAR/KG DIET FOR 32 WK STARTING 1 WK AFTER THE CARCINOGENDOSE (STUDY DURATION: 33 WK), Strain/Sex: SYRIAN/MALE, Target Tissue: Type of Lesion: PANCREAS: ADENOMA, Dose [Carcinogen]: 40 MG/KG ONCE): 12/12 (100%), 29/29 (100%), 0%, not significant | tumour outcome (control, treated, inhibition, significance) (Carcinogen: N-NITROSOBIS(2-OXYPROPYL)AMINE, 60599-38-4, Dose [Inhibitor]: 0.05, 0.1 OR 0.2 MILLIMOLAR/KG DIET FOR 32 WK STARTING 1 WK AFTER THE CARCINOGENDOSE (STUDY DURATION: 33 WK), Strain/Sex: SYRIAN/MALE, Target Tissue: Type of Lesion: PANCREAS: CARCINOMA, Dose [Carcinogen]: 40 MG/KG ONCE): 6/12 (50%), 12/29 (41%), 18%, not significant
